Data from the kinase profiling compilation of Christmann-Franck et al. (2016).

Key:
Test in all cases: radiometric filter-binding kinase assay
[1] = target: HIPK3 (human) (UniProt Q9H422)
[2] = target: IGF1R (human) (UniProt P08069)
[3] = target: ERBB4 (human) (UniProt Q15303)
[4] = target: GSK3B (human) (UniProt P49841)
[5] = target: DYRK1A (human) (UniProt Q13627)
[6] = target: FGFR1 (human) (UniProt P11362); settings: compound 10.0 µM
[7] = target: MAP3K5 (human) (UniProt Q99683)
[8] = tested on: SGK1 (human), O00141 [S422D]
[9] = target: BRSK2 (human) (UniProt Q8IWQ3)
[10] = tested on: PRKAA1 or PRKAA2 (rat); settings: accession and sequence are those of the human protein
[11] = target: MAP2K2 (human) (UniProt P36507)
[12] = target: MKNK1 (human) (UniProt Q9BUB5)
[13] = target: MELK (human) (UniProt Q14680)
[14] = target: MAPK9 (human) (UniProt P45984)
[15] = target: MARK1 (human) (UniProt Q9P0L2)
[16] = target: PAK7 (human) (UniProt Q9P286)
Chain of PAK7 (human) (Q9P286 whole entry, looked up): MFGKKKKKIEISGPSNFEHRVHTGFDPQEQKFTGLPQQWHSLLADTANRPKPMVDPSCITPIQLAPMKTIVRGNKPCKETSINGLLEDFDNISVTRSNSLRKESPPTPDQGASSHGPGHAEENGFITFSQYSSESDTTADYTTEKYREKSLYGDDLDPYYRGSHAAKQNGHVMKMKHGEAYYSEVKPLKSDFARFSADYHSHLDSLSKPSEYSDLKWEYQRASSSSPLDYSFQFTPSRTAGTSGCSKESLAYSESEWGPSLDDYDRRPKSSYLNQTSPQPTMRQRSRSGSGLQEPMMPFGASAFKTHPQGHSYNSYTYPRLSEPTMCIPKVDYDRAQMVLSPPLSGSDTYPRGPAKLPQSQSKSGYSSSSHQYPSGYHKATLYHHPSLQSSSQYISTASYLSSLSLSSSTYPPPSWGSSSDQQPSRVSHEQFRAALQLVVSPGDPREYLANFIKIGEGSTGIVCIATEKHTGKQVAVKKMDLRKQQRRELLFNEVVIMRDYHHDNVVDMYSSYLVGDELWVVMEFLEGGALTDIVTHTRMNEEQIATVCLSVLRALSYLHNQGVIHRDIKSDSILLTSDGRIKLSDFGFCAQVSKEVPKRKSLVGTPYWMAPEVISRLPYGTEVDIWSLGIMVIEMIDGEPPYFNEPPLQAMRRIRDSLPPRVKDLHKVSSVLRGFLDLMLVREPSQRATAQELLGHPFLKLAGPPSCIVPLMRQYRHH

[17] = target: MAPK3 (human) (UniProt P27361)
Chain of MAPK3 (human) (P27361 whole entry, looked up): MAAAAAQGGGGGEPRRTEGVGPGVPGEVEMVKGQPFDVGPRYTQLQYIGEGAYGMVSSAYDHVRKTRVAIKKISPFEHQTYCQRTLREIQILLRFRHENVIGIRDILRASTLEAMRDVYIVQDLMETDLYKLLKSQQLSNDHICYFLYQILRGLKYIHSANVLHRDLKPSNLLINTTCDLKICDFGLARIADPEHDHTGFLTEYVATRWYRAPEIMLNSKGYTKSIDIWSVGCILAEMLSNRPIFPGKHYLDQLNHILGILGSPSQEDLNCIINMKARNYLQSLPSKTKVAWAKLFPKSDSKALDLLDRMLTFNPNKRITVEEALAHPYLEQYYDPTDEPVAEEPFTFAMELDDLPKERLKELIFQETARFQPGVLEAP

[18] = target: PIM3 (human) (UniProt Q86V86)
[19] = target: CAMKK2 (human) (UniProt Q96RR4)
[20] = target: BRSK1 (human) (UniProt Q8TDC3)
[21] = target: EEF2K (human) (UniProt O00418)
[22] = target: MAPKAPK5 (human) (UniProt Q8IW41)
Chain of MAPKAPK5 (human) (Q8IW41 whole entry, looked up): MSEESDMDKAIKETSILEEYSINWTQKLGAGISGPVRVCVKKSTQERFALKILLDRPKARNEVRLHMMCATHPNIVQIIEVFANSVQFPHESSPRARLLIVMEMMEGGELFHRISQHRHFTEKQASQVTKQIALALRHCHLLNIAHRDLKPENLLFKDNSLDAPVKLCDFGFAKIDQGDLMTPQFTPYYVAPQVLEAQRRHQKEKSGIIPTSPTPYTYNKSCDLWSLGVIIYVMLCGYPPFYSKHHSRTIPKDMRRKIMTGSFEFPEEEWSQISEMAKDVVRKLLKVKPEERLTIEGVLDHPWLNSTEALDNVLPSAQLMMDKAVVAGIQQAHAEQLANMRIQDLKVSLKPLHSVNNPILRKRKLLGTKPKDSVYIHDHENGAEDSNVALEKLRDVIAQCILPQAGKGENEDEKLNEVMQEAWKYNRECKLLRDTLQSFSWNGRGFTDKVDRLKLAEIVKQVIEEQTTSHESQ

[23] = target: EPHB4 (human) (UniProt P54760); settings: compound 100.0 µM
[24] = target: PRKCZ (human) (UniProt Q05513)
[25] = target: MAPK13 (human) (UniProt O15264)
[26] = target: MAPKAPK2 (human) (UniProt P49137)
Chain of MAPKAPK2 (human) (P49137 whole entry, looked up): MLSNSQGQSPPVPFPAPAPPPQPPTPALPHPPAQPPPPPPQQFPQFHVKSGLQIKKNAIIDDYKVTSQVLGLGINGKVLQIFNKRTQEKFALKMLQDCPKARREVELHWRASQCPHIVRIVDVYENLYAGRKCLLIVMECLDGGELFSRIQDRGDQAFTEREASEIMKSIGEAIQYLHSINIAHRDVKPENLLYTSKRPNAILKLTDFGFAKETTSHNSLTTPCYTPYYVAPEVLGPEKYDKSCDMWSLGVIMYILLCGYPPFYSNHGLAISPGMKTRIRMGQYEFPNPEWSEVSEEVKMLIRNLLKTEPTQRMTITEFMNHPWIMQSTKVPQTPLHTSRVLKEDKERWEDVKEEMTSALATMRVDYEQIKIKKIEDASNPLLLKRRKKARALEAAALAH

[27] = target: MAPK12 (human) (UniProt P53778)
[28] = target: SYK (human) (UniProt P43405)
[29] = target: PRKACA (human) (UniProt P17612)
[30] = target: PIM1 (human) (UniProt P11309)
[31] = target: MAP2K6 (human) (UniProt P52564)
[32] = target: PIM2 (human) (UniProt Q9P1W9)
[33] = target: DAPK1 (human) (UniProt P53355)
Chain of DAPK1 (human) (P53355 whole entry, looked up): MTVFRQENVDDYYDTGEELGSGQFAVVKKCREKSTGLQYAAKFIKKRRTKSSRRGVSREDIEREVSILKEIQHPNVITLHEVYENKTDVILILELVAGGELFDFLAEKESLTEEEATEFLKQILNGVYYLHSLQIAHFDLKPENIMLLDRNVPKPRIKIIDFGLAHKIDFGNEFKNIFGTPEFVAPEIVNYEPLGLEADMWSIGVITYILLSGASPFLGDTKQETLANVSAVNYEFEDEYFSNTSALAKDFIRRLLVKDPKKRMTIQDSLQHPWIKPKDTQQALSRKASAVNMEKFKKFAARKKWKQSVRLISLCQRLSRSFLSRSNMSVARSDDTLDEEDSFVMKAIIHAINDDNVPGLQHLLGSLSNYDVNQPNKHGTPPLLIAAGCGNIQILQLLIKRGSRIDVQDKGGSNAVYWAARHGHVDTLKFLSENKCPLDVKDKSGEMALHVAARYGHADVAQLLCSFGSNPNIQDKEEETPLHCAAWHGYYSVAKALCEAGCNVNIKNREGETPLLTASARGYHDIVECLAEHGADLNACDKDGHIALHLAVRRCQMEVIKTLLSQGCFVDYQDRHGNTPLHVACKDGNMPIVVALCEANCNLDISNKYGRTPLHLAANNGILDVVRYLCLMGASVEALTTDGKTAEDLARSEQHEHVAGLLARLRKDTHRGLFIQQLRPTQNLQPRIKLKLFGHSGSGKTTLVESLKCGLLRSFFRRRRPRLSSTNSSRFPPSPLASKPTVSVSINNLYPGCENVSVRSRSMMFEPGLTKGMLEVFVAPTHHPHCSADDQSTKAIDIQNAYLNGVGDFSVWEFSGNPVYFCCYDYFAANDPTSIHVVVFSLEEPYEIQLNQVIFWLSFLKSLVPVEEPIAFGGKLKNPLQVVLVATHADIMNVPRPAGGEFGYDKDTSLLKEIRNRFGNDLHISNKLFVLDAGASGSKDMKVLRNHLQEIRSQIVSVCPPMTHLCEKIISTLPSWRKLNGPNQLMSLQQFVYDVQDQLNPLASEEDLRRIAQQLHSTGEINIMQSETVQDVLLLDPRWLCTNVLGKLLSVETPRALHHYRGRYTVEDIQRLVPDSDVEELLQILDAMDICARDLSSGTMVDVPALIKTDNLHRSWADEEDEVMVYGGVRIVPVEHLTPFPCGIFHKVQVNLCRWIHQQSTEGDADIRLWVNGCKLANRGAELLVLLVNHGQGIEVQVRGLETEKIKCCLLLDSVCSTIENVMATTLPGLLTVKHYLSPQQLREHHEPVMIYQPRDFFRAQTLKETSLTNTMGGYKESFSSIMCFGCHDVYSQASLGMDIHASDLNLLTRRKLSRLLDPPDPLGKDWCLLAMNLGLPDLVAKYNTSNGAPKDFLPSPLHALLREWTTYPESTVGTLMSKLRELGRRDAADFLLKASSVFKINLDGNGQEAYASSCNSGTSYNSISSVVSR

[34] = target: IKBKE (human) (UniProt Q14164)

Chain of MAP3K5 (human) (Q99683 whole entry, looked up): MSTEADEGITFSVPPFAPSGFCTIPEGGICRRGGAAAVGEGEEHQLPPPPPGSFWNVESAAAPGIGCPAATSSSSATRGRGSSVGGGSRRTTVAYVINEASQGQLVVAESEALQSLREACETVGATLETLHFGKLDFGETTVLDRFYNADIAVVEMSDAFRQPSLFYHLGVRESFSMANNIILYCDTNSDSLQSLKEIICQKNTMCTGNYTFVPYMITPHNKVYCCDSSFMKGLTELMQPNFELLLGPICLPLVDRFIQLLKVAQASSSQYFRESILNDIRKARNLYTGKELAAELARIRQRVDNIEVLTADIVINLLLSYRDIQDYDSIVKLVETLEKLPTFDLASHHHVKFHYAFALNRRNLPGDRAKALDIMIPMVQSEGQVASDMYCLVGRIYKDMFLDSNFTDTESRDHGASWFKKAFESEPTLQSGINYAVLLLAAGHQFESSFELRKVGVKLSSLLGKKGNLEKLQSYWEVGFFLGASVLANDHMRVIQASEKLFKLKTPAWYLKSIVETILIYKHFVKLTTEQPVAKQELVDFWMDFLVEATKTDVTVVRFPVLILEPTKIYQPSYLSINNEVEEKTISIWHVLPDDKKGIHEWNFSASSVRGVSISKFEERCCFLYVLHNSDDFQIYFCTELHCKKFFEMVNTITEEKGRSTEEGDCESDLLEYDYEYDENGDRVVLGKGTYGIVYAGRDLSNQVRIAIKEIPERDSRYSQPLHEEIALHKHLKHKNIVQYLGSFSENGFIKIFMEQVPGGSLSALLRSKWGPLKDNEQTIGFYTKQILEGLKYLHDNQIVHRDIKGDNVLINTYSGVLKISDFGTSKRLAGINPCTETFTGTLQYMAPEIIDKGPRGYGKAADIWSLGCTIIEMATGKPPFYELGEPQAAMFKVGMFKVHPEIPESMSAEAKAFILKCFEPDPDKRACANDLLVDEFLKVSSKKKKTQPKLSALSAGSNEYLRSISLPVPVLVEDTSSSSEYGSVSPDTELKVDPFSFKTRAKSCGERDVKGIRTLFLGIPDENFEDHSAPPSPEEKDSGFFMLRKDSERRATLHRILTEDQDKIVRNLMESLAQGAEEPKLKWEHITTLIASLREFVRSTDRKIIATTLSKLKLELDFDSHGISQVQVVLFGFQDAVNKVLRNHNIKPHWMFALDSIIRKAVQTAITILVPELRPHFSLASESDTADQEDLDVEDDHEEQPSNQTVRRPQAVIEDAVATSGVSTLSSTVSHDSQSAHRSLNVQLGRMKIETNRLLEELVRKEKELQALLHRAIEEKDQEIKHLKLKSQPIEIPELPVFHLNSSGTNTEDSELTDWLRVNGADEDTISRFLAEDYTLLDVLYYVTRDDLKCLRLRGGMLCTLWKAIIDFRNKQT

residual activity ([1]; compound 10.0 µM): 81%
residual activity ([1]; compound 100.0 µM): 94%
residual activity ([1]; compound 1000.0 µM): 86%
residual activity ([2]; compound 100.0 µM): 92%
residual activity ([2]; compound 1000.0 µM): 117%
residual activity ([3]; compound 10.0 µM): 110%
residual activity ([3]; compound 1000.0 µM): 108%
residual activity ([4]; compound 10.0 µM): 92%
residual activity ([4]; compound 1000.0 µM): 108%
residual activity ([5]; compound 10.0 µM): 105%
residual activity ([5]; compound 100.0 µM): 109%
residual activity ([5]; compound 1000.0 µM): 113%
residual activity [6]: 85%
residual activity ([7]; compound 10.0 µM): 93%
residual activity ([7]; compound 100.0 µM): 88%
residual activity ([7]; compound 1000.0 µM): 105%
residual activity ([8]; compound 10.0 µM): 93%
residual activity ([8]; compound 100.0 µM): 96%
residual activity ([8]; compound 1000.0 µM): 100%
residual activity ([9]; compound 10.0 µM): 91%
residual activity ([9]; compound 100.0 µM): 99%
residual activity ([9]; compound 1000.0 µM): 108%
residual activity ([10]; compound 10.0 µM): 106%
residual activity ([10]; compound 100.0 µM): 104%
residual activity ([10]; compound 1000.0 µM): 109%
residual activity ([11]; compound 10.0 µM): 105%
residual activity ([11]; compound 100.0 µM): 101%
residual activity ([12]; compound 10.0 µM): 101%
residual activity ([12]; compound 100.0 µM): 103%
residual activity ([12]; compound 1000.0 µM): 105%
residual activity ([13]; compound 10.0 µM): 93%
residual activity ([13]; compound 100.0 µM): 103%
residual activity ([14]; compound 10.0 µM): 90%
residual activity ([14]; compound 100.0 µM): 94%
residual activity ([14]; compound 1000.0 µM): 101%
residual activity ([15]; compound 10.0 µM): 98%
residual activity ([15]; compound 100.0 µM): 115%
residual activity ([15]; compound 1000.0 µM): 108%
residual activity ([16]; compound 10.0 µM): 87%
residual activity ([16]; compound 100.0 µM): 125%
residual activity ([16]; compound 1000.0 µM): 93%
residual activity ([17]; compound 10.0 µM): 95%
residual activity ([17]; compound 100.0 µM): 99%
residual activity ([17]; compound 1000.0 µM): 100%
residual activity ([18]; compound 10.0 µM): 96%
residual activity ([18]; compound 100.0 µM): 106%
residual activity ([18]; compound 1000.0 µM): 92%
residual activity ([19]; compound 100.0 µM): 101%
residual activity ([19]; compound 1000.0 µM): 93%
residual activity ([20]; compound 100.0 µM): 93%
residual activity ([20]; compound 1000.0 µM): 91%
residual activity ([21]; compound 100.0 µM): 106%
residual activity ([21]; compound 1000.0 µM): 111%
residual activity ([22]; compound 10.0 µM): 96%
residual activity ([22]; compound 100.0 µM): 92%
residual activity ([22]; compound 1000.0 µM): 94%
residual activity [23]: 122%
residual activity ([24]; compound 10.0 µM): 89%
residual activity ([24]; compound 100.0 µM): 103%
residual activity ([25]; compound 10.0 µM): 92%
residual activity ([25]; compound 100.0 µM): 102%
residual activity ([26]; compound 10.0 µM): 92%
residual activity ([26]; compound 100.0 µM): 86%
residual activity ([26]; compound 1000.0 µM): 93%
residual activity ([27]; compound 10.0 µM): 87%
residual activity ([27]; compound 100.0 µM): 96%
residual activity ([27]; compound 1000.0 µM): 104%
residual activity ([28]; compound 10.0 µM): 106%
residual activity ([28]; compound 100.0 µM): 118%
residual activity ([28]; compound 1000.0 µM): 116%
residual activity ([29]; compound 10.0 µM): 92%
residual activity ([29]; compound 100.0 µM): 96%
residual activity ([29]; compound 1000.0 µM): 99%
residual activity ([30]; compound 10.0 µM): 99%
residual activity ([30]; compound 100.0 µM): 107%
residual activity ([30]; compound 1000.0 µM): 101%
residual activity ([31]; compound 10.0 µM): 92%
residual activity ([31]; compound 100.0 µM): 88%
residual activity ([32]; compound 10.0 µM): 117%
residual activity ([32]; compound 100.0 µM): 109%
residual activity ([32]; compound 1000.0 µM): 116%
residual activity ([33]; compound 10.0 µM): 99%
residual activity ([33]; compound 100.0 µM): 102%
residual activity ([33]; compound 1000.0 µM): 104%
residual activity ([34]; compound 10.0 µM): 80%
residual activity ([34]; compound 100.0 µM): 96%
residual activity ([34]; compound 1000.0 µM): 93%
SMILES: COC(=O)/C=C/C(=O)OC
